Test results reported in ChEMBL document CHEMBL4396905, “Design, synthesis and in vitro evaluation of 6-amide-2-aryl benzoxazole/benzimidazole derivatives against tumor cells by inhibiting VEGFR-2 kinase” (Eur J Med Chem, 2019).

Assays:
[1] = target: T1, Vascular endothelial growth factor receptor 2 (Homo sapiens, UniProt P35968); settings: at 1 µM
Description: Inhibition of VEGFR2 (unknown origin) using Poly (Glu, Tyr) 4:1 as substrate at 1 uM preincubated with substrate followed by enzyme challenge for 1 hr by ELISA relative to control

MDA-MB-231 = experiment: Antiproliferative activity against human MDA-MB-231 cells expressing EGFR assessed as reduction in cell growth incubated for 48 hrs by MTT assay; type: functional, cell-based; settings: MDA-MB-231, 48 h
[2] = target: T1, Vascular endothelial growth factor receptor 2; experiment: Inhibition of VEGFR2 (unknown origin) using Poly (Glu, Tyr) 4:1 as substrate preincubated with substrate followed by enzyme challenge for 1 hr by ELISA
A549 = experiment: Antiproliferative activity against human A549 cells expressing EGFR assessed as reduction in cell growth incubated for 48 hrs by MTT assay; type: functional, cell-based; settings: A549, 48 h
HepG2 = experiment: Antiproliferative activity against human HepG2 cells expressing VEGFR2 assessed as reduction in cell growth incubated for 48 hrs by MTT assay; type: functional, cell-based; settings: HepG2, 48 h
[3] = target: Epidermal growth factor receptor (Homo sapiens) (UniProt P00533); experiment: Inhibition of EGFR (unknown origin) using Poly (Glu, Tyr) 4:1 as substrate at 1 uM preincubated with substrate followed by enzyme challenge for 1 hr by ELISA relative to control
Chain of Epidermal growth factor receptor (Homo sapiens) (P00533 whole entry): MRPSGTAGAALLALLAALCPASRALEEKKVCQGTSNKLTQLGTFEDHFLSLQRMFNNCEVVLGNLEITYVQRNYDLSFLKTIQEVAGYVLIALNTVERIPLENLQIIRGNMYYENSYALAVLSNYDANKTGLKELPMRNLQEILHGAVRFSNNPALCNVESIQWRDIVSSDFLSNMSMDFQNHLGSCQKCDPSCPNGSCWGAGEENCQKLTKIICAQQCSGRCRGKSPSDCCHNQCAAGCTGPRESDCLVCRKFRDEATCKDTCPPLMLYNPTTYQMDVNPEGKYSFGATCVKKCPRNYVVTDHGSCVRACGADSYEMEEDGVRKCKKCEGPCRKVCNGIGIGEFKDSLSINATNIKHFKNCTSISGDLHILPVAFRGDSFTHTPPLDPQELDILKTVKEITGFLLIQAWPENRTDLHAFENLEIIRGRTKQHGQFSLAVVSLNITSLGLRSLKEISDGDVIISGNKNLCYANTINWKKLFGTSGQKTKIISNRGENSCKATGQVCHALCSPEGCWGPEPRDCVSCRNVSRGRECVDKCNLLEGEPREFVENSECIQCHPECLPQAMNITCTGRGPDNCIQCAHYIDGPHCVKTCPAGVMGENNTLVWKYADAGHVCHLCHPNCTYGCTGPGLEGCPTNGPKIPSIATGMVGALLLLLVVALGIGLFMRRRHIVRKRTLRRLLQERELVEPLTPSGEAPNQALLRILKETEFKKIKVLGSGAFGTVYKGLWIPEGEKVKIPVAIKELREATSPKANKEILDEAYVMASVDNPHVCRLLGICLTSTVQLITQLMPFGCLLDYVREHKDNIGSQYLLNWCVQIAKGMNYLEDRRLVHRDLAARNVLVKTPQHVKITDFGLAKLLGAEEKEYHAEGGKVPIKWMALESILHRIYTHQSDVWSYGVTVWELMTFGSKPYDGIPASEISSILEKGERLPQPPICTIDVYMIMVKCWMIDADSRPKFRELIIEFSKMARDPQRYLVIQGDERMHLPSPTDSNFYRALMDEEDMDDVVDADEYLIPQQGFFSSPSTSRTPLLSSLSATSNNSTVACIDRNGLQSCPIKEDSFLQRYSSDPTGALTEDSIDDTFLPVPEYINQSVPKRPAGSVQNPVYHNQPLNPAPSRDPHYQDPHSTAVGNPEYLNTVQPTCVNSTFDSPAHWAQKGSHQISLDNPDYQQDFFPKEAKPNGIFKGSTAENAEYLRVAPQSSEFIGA

HUVEC = experiment: Antiproliferative activity against human HUVEC cells expressing VEGFR2 assessed as reduction in cell growth incubated for 48 hrs by MTT assay; type: functional, cell-based

T1 sequence (P35968 whole entry): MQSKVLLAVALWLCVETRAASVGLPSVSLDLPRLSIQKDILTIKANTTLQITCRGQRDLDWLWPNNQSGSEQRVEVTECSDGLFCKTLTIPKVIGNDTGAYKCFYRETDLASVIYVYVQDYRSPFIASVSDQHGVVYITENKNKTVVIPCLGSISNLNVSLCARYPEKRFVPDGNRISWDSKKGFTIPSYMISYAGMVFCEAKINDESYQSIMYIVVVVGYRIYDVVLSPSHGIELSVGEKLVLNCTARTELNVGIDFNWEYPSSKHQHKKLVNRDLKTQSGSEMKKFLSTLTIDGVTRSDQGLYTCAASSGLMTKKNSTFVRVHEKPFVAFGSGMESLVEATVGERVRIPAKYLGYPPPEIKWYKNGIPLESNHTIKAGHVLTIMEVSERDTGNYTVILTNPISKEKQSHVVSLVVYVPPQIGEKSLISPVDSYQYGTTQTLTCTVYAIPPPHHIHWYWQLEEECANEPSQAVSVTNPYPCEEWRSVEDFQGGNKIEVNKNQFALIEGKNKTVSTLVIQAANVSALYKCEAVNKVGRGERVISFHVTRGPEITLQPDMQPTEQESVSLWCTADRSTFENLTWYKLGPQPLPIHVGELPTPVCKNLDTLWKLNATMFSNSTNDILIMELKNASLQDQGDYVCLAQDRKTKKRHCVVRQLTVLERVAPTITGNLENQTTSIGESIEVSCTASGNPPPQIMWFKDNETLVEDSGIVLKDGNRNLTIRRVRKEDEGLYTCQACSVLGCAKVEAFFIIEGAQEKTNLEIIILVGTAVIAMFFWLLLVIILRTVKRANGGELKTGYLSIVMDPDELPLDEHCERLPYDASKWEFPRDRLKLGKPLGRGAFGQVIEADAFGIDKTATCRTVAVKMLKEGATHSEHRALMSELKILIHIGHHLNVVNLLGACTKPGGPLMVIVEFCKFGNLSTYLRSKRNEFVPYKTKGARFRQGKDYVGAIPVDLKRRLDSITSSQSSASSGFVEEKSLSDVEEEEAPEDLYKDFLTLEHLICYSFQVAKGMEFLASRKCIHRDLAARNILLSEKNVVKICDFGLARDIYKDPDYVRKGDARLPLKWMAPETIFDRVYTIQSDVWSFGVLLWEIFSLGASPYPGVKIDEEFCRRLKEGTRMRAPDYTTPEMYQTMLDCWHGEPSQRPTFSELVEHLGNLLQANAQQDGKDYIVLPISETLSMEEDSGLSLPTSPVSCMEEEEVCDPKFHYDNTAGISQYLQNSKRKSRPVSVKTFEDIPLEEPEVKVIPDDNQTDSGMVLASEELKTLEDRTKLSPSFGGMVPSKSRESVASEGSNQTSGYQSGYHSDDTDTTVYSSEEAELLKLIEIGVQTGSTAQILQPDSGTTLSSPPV

| inhibition [1] [%] | IC50 (MDA-MB-231) [µM] | IC50 [2] [µM] | IC50 (A549) [µM] | IC50 (HepG2) [µM] | inhibition [3] [%] | Compound | IC50 (HUVEC) [µM] |
| --- | --- | --- | --- | --- | --- | --- | --- |
| 90.2 | 75.9 | 0.419 | 36.8 | 3.43 | 43.1 | COc1cc(CC(=O)Nc2ccc3[nH]c(-c4ccc(Cl)cc4)nc3c2)cc(OC)c1OC | 7.32 |
| 89.1 | 74.3 | 0.842 | 40.2 | 33.1 | 39.1 | Cc1ccc(CC(=O)Nc2ccc3oc(-c4ccccc4Br)nc3c2)cc1 | 23.6 |
| 89.3 | 79.5 | 0.357 | 93.4 | 26.4 | 47.3 | COc1cc(CC(=O)Nc2ccc3oc(-c4ccccc4)nc3c2)cc(OC)c1OC | 19.2 |
| 83.5 | 94.3 | 0.579 | 89.2 | 16.4 | 37.2 | COc1ccc(CC(=O)Nc2ccc3oc(-c4ccccc4)nc3c2)cc1OC | 18.4 |
| 102 | 74.3 | 0.0973 | 74.4 | 8.22 | 49.4 | COc1ccc(CC(=O)Nc2ccc3oc(-c4ccc(Cl)cc4)nc3c2)cc1 | 5.25 |
| 100 | 63.2 | 0.0737 | 59.6 | 5.56 | 48.3 | Cc1ccc(CC(=O)Nc2ccc3[nH]c(-c4ccc(Cl)cc4)nc3c2)cc1 | 3.21 |
| 92.6 | > 100 | 0.386 | > 100 | 24.3 | 52.2 | COc1ccc(CC(=O)Nc2ccc3oc(-c4ccc(Cl)cc4)nc3c2)cc1OC | 11.4 |
